Values quoted from earlier work, collected in patent publication US20230173142A1, “BALLISTIC DELIVERY TO MULTILAYERED TISSUES AND RELATED PARTICLES, COMPOSITIONS, METHODS AND SYSTEMS” (CALIFORNIA INSTITUTE OF TECHNOLOGY, priority 2021, published 2023).
Entries after “also recorded” stand apart in the source; their conditions may differ. Where two headings read alike, the source gives them in different places.

Assays:
[1] = system: ear hole punch injury; settings: multiple peripheral subcutaneous injections of hydrogel over a 10-day period; Swiss Webster mice
[2] = molecular target: T1, lysyl oxidase (LOX) (Homo sapiens, UniProt P28300); settings: increasing [Cu^2+]
T1 sequence (P28300 169-417): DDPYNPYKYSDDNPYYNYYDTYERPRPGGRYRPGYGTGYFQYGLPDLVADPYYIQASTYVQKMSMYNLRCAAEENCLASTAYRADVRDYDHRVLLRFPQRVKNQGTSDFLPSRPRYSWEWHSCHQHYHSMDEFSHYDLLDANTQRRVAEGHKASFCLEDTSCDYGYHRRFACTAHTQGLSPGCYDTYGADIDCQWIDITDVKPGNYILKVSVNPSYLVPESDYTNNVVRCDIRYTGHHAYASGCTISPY

[3] = system: rabbit cornea; settings: rabbit cornea treated topically
[4] = system: human cadaver corneas
[5] = system: rabbit corneas; settings: rabbit corneas ex vivo
[6] = system: wound healing

**Q.** With `O=C(O)c1c[nH]c2c(ccc3cccnc32)c1=O` [1,4-DPCA, 1,4-dihydrophenonthrolin-4-one-3-carboxylic acid] as the molecule, how does the “wound healing after ear hole punch injury” value [1] read?
**A.** regenerative wound healing

**Q.** With `[Cu+2]` [Copper] as the molecule, how does the LOX activity [2] read?
**A.** restore LOX activity

**Q.** And the “crosslinking as measured by LNL” value [3]?
**A.** increase crosslinking

**Q.** And the biomechanical strength [4]?
**A.** increase biomechanical strength

**Q.** What about the biomechanical strength [5] of the same molecule?
**A.** increase biomechanical strength

**Q.** For “EGF: growth factor loaded in carrier material”, which Effect ([6]; Material: Nanoparticle) is on record?
**A.** Accelerated migration of inflammatory cells during the inflammation; also recorded: Enhanced wound closure, collagen deposition, angiogenesis, and

**Q.** For SDF-1: stromal cell-derived factor-1, which Effect ([6]; Material: Hydrogel) is on record?
**A.** Accelerated wound healing and increased vascularization

**Q.** Which Effect ([6]; Material: Hydrogel) does the source give for VEGF here?
**A.** Enhanced wound healing, granulation, collagen deposition,

**Q.** What about the Effect ([6]; Material: Lyotropic liquid crystal) of the same molecule?
**A.** Enhanced vascularization

**Q.** For “aFGF: growth factor/cytokine loaded in hydrogel”, which Effect ([6]; Material: Hydrogel) is on record?
**A.** Accelerated cell proliferation, neo-vascularization, and wound healing

**Q.** For “bFGF: growth factor/cytokine loaded in carrier material”, which Effect ([6]; Material: Concentrate) is on record?
**A.** Enhanced wound closure, angiogenesis, collagen deposition,

**Q.** And the Effect ([6]; Material: Hydrogel)?
**A.** Enhanced wound closure, collagen deposition, vascularization,; also recorded: Enhanced wound closure, organized collageno depostion,; also recorded: Enhanced the formation of granulation tissue, increased angiogenesis,
